Experimental findings from ChEMBL document CHEMBL1134731, “1,3-Biarylureas as selective non-peptide antagonists of the orexin-1 receptor” (Bioorg Med Chem Lett, 2001) are described below.

The pKb is −log10 of the Kb, conventionally taken in molar units. Higher therefore signals a small Kb. A word on the Ki: it is the equilibrium dissociation constant of an inhibitor or competing ligand from its target. Read a high Ki as lower affinity. The term half-life denotes the time needed for the level to fall by half in the phase considered. For orientation: bioavailability means dose-corrected exposure relative to a reference, in per cent.

Data set [1] addresses T1, Orexin/Hypocretin receptor type 1 (Homo sapiens) (UniProt O43613).
T1 sequence (whole entry): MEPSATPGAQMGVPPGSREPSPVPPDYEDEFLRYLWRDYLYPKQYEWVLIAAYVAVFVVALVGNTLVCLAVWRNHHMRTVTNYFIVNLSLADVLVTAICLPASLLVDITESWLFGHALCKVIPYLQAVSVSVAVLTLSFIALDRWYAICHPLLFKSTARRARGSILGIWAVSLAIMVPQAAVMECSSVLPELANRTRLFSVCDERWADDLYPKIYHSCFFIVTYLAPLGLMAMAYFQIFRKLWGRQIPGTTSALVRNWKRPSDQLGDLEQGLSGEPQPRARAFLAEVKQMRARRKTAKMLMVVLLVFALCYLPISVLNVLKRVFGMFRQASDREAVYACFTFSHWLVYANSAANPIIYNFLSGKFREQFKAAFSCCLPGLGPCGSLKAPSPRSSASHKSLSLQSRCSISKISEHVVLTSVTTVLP
The experiment in a line: Binding affinity towards orexin receptor type 1.

In data set [2] the target is 5-hydroxytryptamine receptor 2B (Homo sapiens, UniProt P41595). The experiment in a line: Binding affinity against 5-hydroxytryptamine 2B receptor.
The target in data set [3] is T2, 5-hydroxytryptamine receptor 2C (Homo sapiens, UniProt P28335).
T2 sequence (P28335 whole entry): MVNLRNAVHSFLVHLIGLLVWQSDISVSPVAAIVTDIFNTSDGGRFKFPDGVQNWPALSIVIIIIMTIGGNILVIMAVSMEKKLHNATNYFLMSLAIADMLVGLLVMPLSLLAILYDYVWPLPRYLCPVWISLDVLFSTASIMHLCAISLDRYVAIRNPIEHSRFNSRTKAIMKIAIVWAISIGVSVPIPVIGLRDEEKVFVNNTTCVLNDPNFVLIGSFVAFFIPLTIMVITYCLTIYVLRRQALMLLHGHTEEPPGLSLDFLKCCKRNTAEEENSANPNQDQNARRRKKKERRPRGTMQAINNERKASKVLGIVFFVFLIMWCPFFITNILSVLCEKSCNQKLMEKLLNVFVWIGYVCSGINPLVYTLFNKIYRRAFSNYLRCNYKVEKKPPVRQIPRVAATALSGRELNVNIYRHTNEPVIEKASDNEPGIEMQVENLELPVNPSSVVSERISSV
As to the kind of experiment: Binding affinity against 5-hydroxytryptamine 2C receptor.

The nature of data set [4]: Steady state concentration was evaluated. Format: ADME.
Data set [5] can be described thus: Half life was evaluated in vivo after intraperitoneal administration. As to conditions: ip.
The nature of data set [6]: Brain level determined after 2 hr from ip bolus dosing of 10 mg/kg. Format: functional. As to conditions: route intraperitoneal.
Data set [7] in a line: Brain level determined after 4 hr from a bolus 10 mg/kg ip dosing. The data set is classed as functional. As to conditions: route intraperitoneal.
A short description of data set [8]: Compound was tested in vivo for steady state brain-blood ratio after intravenous infusion of 1.8 mg/kg/h free base drug for 12h. Format: functional.
Data set [9] concerns the target T3, Orexin receptor type 2 (Homo sapiens) (UniProt O43614).
T3 sequence (whole entry): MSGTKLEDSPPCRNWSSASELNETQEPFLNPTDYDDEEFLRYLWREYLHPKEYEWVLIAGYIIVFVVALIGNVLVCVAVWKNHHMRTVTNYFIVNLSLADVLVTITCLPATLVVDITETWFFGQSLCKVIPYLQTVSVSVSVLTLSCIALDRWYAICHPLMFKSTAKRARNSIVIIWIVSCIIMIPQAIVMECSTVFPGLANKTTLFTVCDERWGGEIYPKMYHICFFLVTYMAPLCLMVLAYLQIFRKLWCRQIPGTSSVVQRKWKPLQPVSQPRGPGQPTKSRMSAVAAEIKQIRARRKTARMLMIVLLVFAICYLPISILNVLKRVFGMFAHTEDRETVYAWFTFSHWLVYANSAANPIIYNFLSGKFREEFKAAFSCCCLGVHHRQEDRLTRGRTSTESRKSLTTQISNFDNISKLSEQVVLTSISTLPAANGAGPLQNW
Description: Compound was evaluated for its binding affinity towards Orexin receptor type 2

The nature of another data set: in vivo. As to conditions: eutheria, po.

5-hydroxytryptamine receptor 2B, sequence (P41595 whole entry): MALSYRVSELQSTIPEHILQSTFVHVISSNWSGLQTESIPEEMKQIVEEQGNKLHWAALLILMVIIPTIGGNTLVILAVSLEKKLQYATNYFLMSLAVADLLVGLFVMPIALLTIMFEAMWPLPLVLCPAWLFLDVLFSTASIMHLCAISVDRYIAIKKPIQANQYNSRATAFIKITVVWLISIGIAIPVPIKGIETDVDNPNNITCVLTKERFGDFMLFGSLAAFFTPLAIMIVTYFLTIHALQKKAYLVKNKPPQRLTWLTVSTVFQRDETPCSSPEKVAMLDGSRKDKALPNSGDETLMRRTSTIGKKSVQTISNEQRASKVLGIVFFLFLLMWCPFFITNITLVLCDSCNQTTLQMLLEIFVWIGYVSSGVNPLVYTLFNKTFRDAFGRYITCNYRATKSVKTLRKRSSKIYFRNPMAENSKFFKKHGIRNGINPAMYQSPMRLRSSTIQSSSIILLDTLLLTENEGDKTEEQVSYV

With `COc1ccc(NC(=O)Nc2ccnc3ccccc23)cc1`, the pKb in data set [1] is 6.8. As to `Nc1ccc(NC(=O)Nc2ccnc3ccccc23)cc1`, the pKb in [1] is less than 6.1. On the same count and under the same terms, then `CN(C)c1cccc(NC(=O)Nc2ccnc3ccccc23)c1`, with 6.1; and `N#Cc1ccc(NC(=O)Nc2ccnc3ccccc23)cc1`, with less than 6.2. As to `Cc1cc2cc(NC(=O)Nc3ccnc4ccccc34)ccc2n1C`, the inhibition constant Ki is 3.98 nM in data set [2] and 79.4 nM in [3]. Compound `Cn1ccc2cc(NC(=O)Nc3ncnc4ccccc34)ccc21` registered a pKb in [1] of less than 6.3. Consider `Cc1nc2ccc(NC(=O)Nc3ccnc4cccnc34)cc2o1`, for which the Ki in [2] is 3980 nM; in data set [3], greater than 5010 nM. In data set [4], the Css amounted to 490 nM. The same compound showed a half-life in data set [5] of 24 min. The pKb in [1] was found to be 7.4; in data set [9], 5.7. In addition, the Brain level is 3.8 µM in [6] and less than 30 nM in data set [7]. Further, the Ratio in data set [8] is 0.4. The compound further yielded a bioavailability in the data set “in vivo” of 10%. `Cc1nc2ccc(NC(=O)Nc3ccnc4ncccc34)cc2o1` returned a negative-log Kb (pKb) in [1] of 6.5.

Consider `O=C(Nc1ccc2c(c1)OCCCO2)Nc1ccnc2ccccc12`, for which the pKb in data set [1] stood at 7.4. On the same count and under the same terms, then `O=C(Nc1ccccc1)Nc1ccnc2ccccc12`, with less than 6.1. Compound `CSc1ccc(NC(=O)Nc2ccnc3cccnc23)cc1` gave a pKb in data set [1] of 7.5. Same read-out and setting: then `O=C(Nc1ccc2c(ccn2Cc2ccccc2)c1)Nc1ccnc2ccccc12`, with less than 6.1. As for `COc1ccc(NC(=O)Nc2ccnc3ccccc23)cc1Cl`, the Ki in [2] was 15.8 nM; in data set [3] it was 50.1 nM.

Compound `O=C(Nc1ccc2ocnc2c1)Nc1ccnc2ccccc12` had a pKb in data set [1] of less than 6.2. In turn, `O=C(Nc1ccc(N2CCCC2)cc1)Nc1ccnc2ccccc12` showed a pKb in data set [1] of 6.4. `CN1CCc2cc(NC(=O)Nc3ccnc4ccccc34)ccc21`: the Ki in [2] is 12.6 nM; in data set [3], 50.1 nM. In data set [1], this compound returned a pKb of 7.6. Regarding `O=C(Nc1cccc(Cl)c1)Nc1ccnc2ccccc12`, in [1], the pKb amounted to 6.4. On the same count and under the same terms, then `Cn1ccc2cc(NC(=O)Nc3ccnc4cccnc34)ccc21`, with 7.3. As for `Cc1nc2ccc(NC(=O)Nc3ccnc4ccccc34)cc2o1`, the Ki in data set [2] and in data set [3] was 631 nM throughout. The compound further registered a pKb in [1] of 7.7.

In data set [1], `COc1cccc(NC(=O)Nc2ccnc3ccccc23)c1` registered a pKb of 6.6.

As for `CSc1ccc(NC(=O)Nc2ccnc3ccccc23)cc1`, the Ki in data set [2] and in [3] was 31.6 nM each time. This compound also displayed a Css in data set [4] of 1000 nM. Besides, the negative-log Kb (pKb) in data set [1] came out at 7.9. Further, the Ratio in [8] is reported as 0.1.

As to `O=C(Nc1ccc2[nH]ccc2c1)Nc1ccnc2ccccc12`, the pKb in data set [1] worked out at 6.2. `Cn1ccc2cc(NC(=O)Nc3ccnc4ccccc34)ccc21`: the Ki in [2] was 2.51 nM; in [3], 25.1 nM. Also, the pKb in data set [1] stood at 7.5. On to `Cn1ccc2cc(NC(=O)Nc3ccncc3)ccc21`, for which, in data set [1], the pKb is less than 5.

`CN(C)c1ccc(NC(=O)Nc2ccnc3ccccc23)cc1Cl` displayed a pKb in data set [1] of 7.4. On to `CCN(CC)c1ccc(NC(=O)Nc2ccnc3ccccc23)cc1`, for which the Ki in [2] was 50.1 nM; in data set [3], 31.6 nM. The same compound displayed a Css in data set [4] of 700 nM. The compound also displayed a negative-log Kb (pKb) in data set [1] of 7.4. Further, in [8], the Ratio was found to be 0.16. With `Cn1ccc2cc(NC(=O)Nc3cccc4ccccc34)ccc21`, the negative-log Kb (pKb) in data set [1] was less than 6.3. Turning to `CN(C)c1ccc(NC(=O)Nc2ccnc3ccccc23)cc1`, the inhibition constant (Ki) in data set [2] is 79.4 nM; in data set [3], 126 nM. The Css in [4] was 4200 nM. The pKb in data set [1] came out at 7.8. In addition, the Ratio in data set [8] worked out at 0.06. As for `O=C(Nc1ccc2ncoc2c1)Nc1ccnc2ccccc12`, the pKb in [1] stood at 7. In [1], `Cc1nc2ccc(NC(=O)Nc3ccnc4ccncc34)cc2o1` showed a pKb of 5.9. In [1], `COc1ccc(NC(=O)Nc2ccnc3ccccc23)cc1OC` registered a pKb of less than 6.3.
